Experimental data taken from patent publication US9150568B2, “Compositions and methods for modulating FXR” (NOVARTIS AG, priority 2010, dated 2015).

These molecules were tested against T1, human Farnesoid X Receptor (FXR) ligand binding domain (GST-FXR LBD) (Homo sapiens, UniProt Q96RI1) (assay: Human GST-FXR LBD co-activator interaction assay (HTRF)). Details: GST-FXR LBD / biotin-SRC-1 peptide FRET; response relative to GW4064; read-out: FXR Co-activator interaction assay (EC50).
T1 construct: purchased Invitrogen
T1 sequence (Q96RI1 193-472 isoform Q96RI1-2): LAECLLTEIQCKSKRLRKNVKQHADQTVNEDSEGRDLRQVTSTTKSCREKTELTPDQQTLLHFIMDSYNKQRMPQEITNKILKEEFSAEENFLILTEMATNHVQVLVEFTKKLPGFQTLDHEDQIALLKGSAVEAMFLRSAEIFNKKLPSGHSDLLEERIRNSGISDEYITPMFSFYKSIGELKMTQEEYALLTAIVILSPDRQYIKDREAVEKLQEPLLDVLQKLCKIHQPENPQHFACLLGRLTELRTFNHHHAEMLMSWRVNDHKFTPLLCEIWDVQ
Format: biochemical
Text: Human GST-FXR LBD Co-activator interaction Assay. The FXR HTRF assay is a biochemical assay measuring the interaction between FXR and a coactivator protein (SRC1). The ligand-induced interaction with a coactivator protein is a critical step in transcriptional activation by FXR. Thus, this is an assay designed to measure FXR agonist activity of compounds.
The ligand-dependent interaction between GST-FXR LBD and a peptide derived from Steroid Receptor Coactivator-1 (SRC-1) was monitored by Fluorescence Resonance Energy Transfer (FRET). […] Test compounds (in DMSO solution) and detection reagents (anti-GST-Cryptate labeled antibody and Streptavidin-XL665 conjugate; CisBio) were added in assay buffer containing 50 mM KF.
A negative control (without Streptavidin-XL665) was run with each assay and represented the background fluorescence. A reference FXR agonist, GW4064, was included in each experiment as positive control. The efficacy of each test compound was compared to that of GW4064. At each concentration, the relative activity of the test compound was expressed as Response %=(Rsample−RDMSO)/(Rpositive−RDMSO), where Rsample is the HTRF response (expressed in Delta F %) for the test compound, Rpositive is the maximal response for GW4064 at saturating concentrations, and RDMSO is the response for DMSO control. The EC50 values were calculated using GraphPad Prism (GraphPad Software) using non-linear regression curve fit (log(agonist) vs. response—variable slope (four parameters)).

| SMILES | EC50 [nM] |
| --- | --- |
| CCOC(=O)c1ccc2nc(N3C4CC[C@H]3CC(OCc3c(-c5ccccc5OC(F)(F)F)noc3C3CC3)C4)sc2c1 (stereo partly shown) [Example 3A, ethyl 2-(3-((5-cyclopropyl-3-(2-(trifluoromethoxy)phenyl)isoxazol-4-yl)methoxy)-8-azabicyclo[3.2.1]octan-8-yl)benzo[d]thiazole-6-carboxylate] | 20 |
| O=C(O)c1cnc(N2[C@@H]3CC[C@H]2C[C@@H](OCc2c(-c4c(F)cccc4F)noc2C2CC2)C3)c(C2CC2)c1 [Example 22-17B] | 3 |
| Cc1cc(C(=O)O)nc(N2C3CC[C@H]2CC(OCc2c(-c4cccc(F)c4F)noc2C2CC2)C3)n1 (stereo partly shown) [Example 30-66] | 220 |
| O=C(O)c1cc(F)c2nc(N3C4CC[C@H]3C[C@H](OCc3c(C5CC5C(F)(F)F)noc3C3CC3)C4)sc2c1 (mixture of isomers) [Example 11] | 30 |
| O=C(NCCS(=O)(=O)O)c1cc(F)c2nc(N3C4CC[C@H]3C[C@H](OCc3c(-c5ccccc5OC(F)(F)F)noc3C3CC3)C4)sc2c1 [Example 16-2] | 0.4 |
| O=C(O)CNC(=O)c1ccc(N2C3CC[C@H]2C[C@H](OCc2c(-c4ccccc4OC(F)(F)F)noc2C2CC2)C3)nc1 [Example 15-3] | 17 |
| Cc1cccc(F)c1-c1noc(C2CC2)c1CO[C@H]1C[C@H]2CC[C@@H](C1)N2c1ccc2nc(C(=O)O)cn2n1 [Example 31-6] | 9 |
| COC(=O)c1cnc(N2C3CC[C@H]2C[C@H](OCc2c(-c4ccccc4OC(F)(F)F)noc2C2CC2)C3)nc1C(F)(F)F [Example 19-2A] | 80 |
| O=C(O)c1ccc(N2C3CC[C@H]2CC(OCc2c(-c4c(F)cccc4F)noc2C2CC2)C3)c(F)c1 (stereo partly shown) [Example 25-3B] | 0.9 |
| COC(=O)c1cnc(N2C3CC[C@H]2C[C@H](OCc2c(-c4ccccc4OC(F)(F)F)noc2C2CC2)C3)cn1 [Example 18-5A] | 20 |
| Cc1cc(C(=O)O)nc(N2C3CC[C@H]2C[C@H](OCc2c(-c4ccccc4OC(F)(F)F)noc2C2CC2)C3)n1 [Example 18-7B] | 2 |
| O=C(O)c1ccc2nc(N3C4CC[C@H]3C[C@H](OCc3c(-c5ccccc5C(F)(F)F)noc3C3CC3)C4)sc2c1 [Example 6-1B] | 0.67 |
| O=C(O)c1ccc2nc(N3C4CC[C@H]3CC(OCc3c(-c5ccccc5OC(F)(F)F)noc3C3CC3)C4)sc2c1 (stereo partly shown) [Example 3B] | 0.74 |
| COC(=O)c1ccnc(N2C3CC[C@H]2C[C@H](OCc2c(-c4ccccc4OC(F)(F)F)noc2C2CC2)C3)n1 [Example 19-6A] | 50 |
| COC(=O)c1cc(Br)c2nc(N3C4CC[C@H]3CC(OCc3c(-c5ccccc5OC(F)(F)F)noc3C3CC3)C4)sc2c1 (stereo partly shown) [Example 30-39] | 36 |
| O=C(O)c1ccc(N2[C@@H]3CC[C@H]2C[C@@H](OCc2c(-c4cccc(F)c4)noc2C2CC2)C3)nc1 [Example 30-9] | 340 |
| Cc1cc(C(=O)O)cnc1N1C2CC[C@H]1CC(OCc1c(-c3ccccc3OC(F)F)noc1C1CC1)C2 (stereo partly shown) [Example 22-7B] | 5 |
| Cc1cc(C(=O)O)nc(N2C3CC[C@H]2C[C@H](OCc2c(C4CCCCC4)noc2C2CC2)C3)n1 [Example 8-7B] | 130 |
| O=C(O)c1ccc(N2C3CC[C@H]2CC(OCc2c(-c4cccnc4C(F)(F)F)noc2C2CC2)C3)nc1 (stereo partly shown) [Example 30-73] | 74 |
| O=C(O)c1cnc2ccc(N3C4CC[C@H]3CC(OCc3c(-c5ccccc5OC(F)(F)F)noc3C3CC3)C4)nn12 (stereo partly shown) [Example 30-60] | 94 |
| O=C(O)CNC(=O)c1cc(F)c2nc(N3C4CC[C@H]3C[C@H](OCc3c(-c5ccccc5OC(F)(F)F)noc3C3CC3)C4)sc2c1 [Example 15-2] | 0.5 |
| Cc1cc(C(=O)O)cc2sc(N3C4CC[C@H]3CC(OCc3c(-c5c(F)cccc5F)noc3C3CC3)C4)nc12 (stereo partly shown) [Example 30-33] | 0.7 |
| Cc1cc(C(=O)O)cc2sc(N3[C@@H]4CC[C@H]3C[C@@H](OCc3c(-c5ccc(F)cc5F)noc3C3CC3)C4)nc12 [Example 30-38] | 1.8 |
| O=C(O)c1cnn2ccc(N3C4CC[C@H]3CC(OCc3c(-c5ccccc5OC(F)(F)F)noc3C3CC3)C4)nc12 (stereo partly shown) [Example 30-59] | 92 |
| COC(=O)c1cnc(N2C3CC[C@H]2CC(OCc2c(-c4ccccc4C(F)(F)F)noc2C2CC2)C3)cn1 (stereo partly shown) [Example 21-3A] | 180 |
| O=C(O)c1cnc(N2C3CC[C@H]2CC(OCc2c(-c4ccccc4OC(F)F)noc2C2CC2)C3)nc1 (stereo partly shown) [Example 22-10B] | 8 |

| SMILES | EC50 [nM] |
| --- | --- |
| O=C(O)c1cc(F)c(N2C3CC[C@H]2CC(OCc2c(-c4ccccc4OC(F)(F)F)noc2C2CC2)C3)c(F)c1 (stereo partly shown) [Example 24-1B] | 8 |
| COc1cc(C(=O)O)cc2sc(N3[C@@H]4CC[C@H]3C[C@@H](OCc3c(-c5ccccc5F)noc3C3CC3)C4)nc12 [Example 30-67] | 0.5 |
| O=C(O)c1cccc(N2C3CC[C@H]2C[C@H](OCc2c(-c4ccccc4OC(F)(F)F)noc2C2CC2)C3)n1 [Example 19-7B] | 3 |
| Cc1cc(C(=O)O)nc(N2C3CC[C@H]2CC(OCc2c(-c4ccccc4OC(F)F)noc2C2CC2)C3)n1 (stereo partly shown) [Example 22-8] | 5 |
| O=C(O)c1cc(Br)c2nc(N3C4CC[C@H]3CC(OCc3c(-c5ccccc5OC(F)(F)F)noc3C3CC3)C4)sc2c1 (stereo partly shown) [Example 30-40] | 0.7 |
| COC(=O)c1cnc(N2[C@@H]3CC[C@H]2C[C@@H](OCc2c(-c4c(F)cccc4F)noc2C2CC2)C3)cc1C(F)(F)F [Example 22-16A] | 160 |
| COc1cc(C(=O)O)cc2sc(N3C4CC[C@H]3CC(OCc3c(-c5ccc(F)cc5)noc3C3CC3)C4)nc12 (stereo partly shown) [Example 30-7] | 18 |
| O=C(O)CNC(=O)c1ccc2nc(N3C4CC[C@H]3C[C@H](OCc3c(-c5ccccc5OC(F)(F)F)noc3C3CC3)C4)sc2c1 [Example 15-1B, 2-(2-(3-((5-cyclopropyl-3-(2-(trifluoromethoxy)phenyl)isoxazol-4-yl)methoxy)-8-azabicyclo[3.2.1]octan-8-yl)benzo[d]thiazole-6-carboxamido)acetic acid] | 0.6 |
| O=C(O)c1cn2nc(N3[C@@H]4CC[C@H]3C[C@@H](OCc3c(-c5c(F)cccc5F)noc3C3CC3)C4)ccc2n1 [Example 31-5] | 10 |
| O=C(O)c1ccc(N2[C@@H]3CC[C@H]2C[C@@H](OCc2c(-c4ccccc4F)noc2C2CC2)C3)nc1 [Example 30-69] | 21 |
| O=C(O)c1ccc(N2C3CC[C@H]2CC(OCc2c(-c4c(Cl)cccc4Cl)noc2C2CC2)C3)nc1 (stereo partly shown) [Example 30-72] | 1.4 |
| COC(=O)c1cc(F)c(N2C3CC[C@H]2CC(OCc2c(-c4ccccc4OC(F)(F)F)noc2C2CC2)C3)c(F)c1 (stereo partly shown) [Example 24-1A] | 40 |
| O=C(O)c1cnc(N2[C@@H]3CC[C@H]2C[C@@H](OCc2c(-c4c(F)cccc4F)noc2C2CC2)C3)cn1 [Example 22-15B] | 28 |
| Cc1cc(C(=O)O)cc(N2C3CC[C@H]2CC(OCc2c(-c4ccccc4C(F)(F)F)noc2C2CC2)C3)n1 (stereo partly shown) [Example 21-1B] | 260 |
| COc1cc(C(=O)O)cc2sc(N3C4CC[C@H]3CC(OCc3c(-c5ccccc5C(F)(F)F)noc3C3CC3)C4)nc12 (stereo partly shown) [Example 2-2B] | 3 |
| O=C(O)c1cc(C2CC2)nc(N2C3CC[C@H]2CC(OCc2c(-c4ccccc4OC(F)(F)F)noc2C2CC2)C3)n1 (stereo partly shown) [Example 30-42] | 3 |
| O=C(O)c1ccc(N2C3CC[C@H]2CC(OCc2c(-c4ccccc4OC(F)F)noc2C2CC2)C3)c(F)c1 (stereo partly shown) [Example 25-6B] | 3 |
| O=C(O)c1cnc(N2C3CC[C@H]2CC(OCc2c(-c4ccccc4OC(F)F)noc2C2CC2)C3)cc1C(F)(F)F (stereo partly shown) [Example 22-1B] | 20 |
| O=C(O)c1cncc(N2C3CC[C@H]2C[C@H](OCc2c(-c4ccccc4OC(F)(F)F)noc2C2CC2)C3)n1 [Example 19-5B] | 9 |
| COC(=O)c1cnc(N2C3CC[C@H]2C[C@H](OCc2c(-c4ccccc4OC(F)(F)F)noc2C2CC2)C3)cc1C(F)(F)F [Example 19-3A] | 90 |
| Cc1ccccc1-c1noc(C2CC2)c1COC1CC2CC[C@@H](C1)N2c1nc2c(C)cc(C(=O)O)cc2s1 (stereo partly shown) [Example 30-36] | 1.1 |
| O=C(O)c1cc(F)c(N2[C@@H]3CC[C@H]2C[C@@H](OCc2c(-c4c(F)cccc4F)noc2C2CC2)C3)c(F)c1 [Example 25-4B] | 2 |
| O=C(O)c1cc2cc(N3C4CC[C@H]3CC(OCc3c(-c5ccccc5OC(F)(F)F)noc3C3CC3)C4)ccc2o1 (stereo partly shown) [Example 28-14] | 4.6 |
| Cc1c(N2[C@@H]3CC[C@H]2C[C@@H](OCc2c(-c4ccccc4C4CC4)noc2C2CC2)C3)ccc2oc(C(=O)O)cc12 [Example 28-8] | 10.4 |
| Cc1cc(C(=O)O)cnc1N1[C@@H]2CC[C@H]1C[C@@H](OCc1c(-c3c(F)cccc3F)noc1C1CC1)C2 [Example 30-25] | 3 |
| O=C(O)c1cccc(N2C3CC[C@H]2CC(OCc2c(-c4ccccc4C(F)(F)F)noc2C2CC2)C3)n1 (stereo partly shown) [Example 21-6B] | 16 |
